Where a SMILES comes first, the peptide text is derived from it. Where no end group is shown, it is not given here. [ ]: non-standard residue; d: D form. The star is where a group is joined. Trp(1-Me) = Cn1cc(C[C@H](N)C(=O)O)c2ccccc21; NMeW = CN[C@@H](Cc1c[nH]c2ccccc12)C(=O)O; Phe(3-Br) = N[C@@H](Cc1cccc(Br)c1)C(=O)O; Fmoc = O=C(OCC1c2ccccc2-c2ccccc21)*; Aoc(2) = CCCCCC[C@H](N)C(=O)O; Nle = CCCC[C@H](N)C(=O)O; Cbz = O=C(OCc1ccccc1)*
The molecules below were run against T1, CCK-B receptors (CHO-CCK) (Homo sapiens, UniProt P32239) (assay: Calcium flux (Fluo-8) agonist test on CHO-CCK model cells). Settings: CHO-CCK cells, Fluo-8 calcium flux; 100% control = 20 nM CCK8.
T1 construct: expressed in transfected cells; host or cells: CHO (CHO-CCK model cells)
T1 sequence (P32239 1-447): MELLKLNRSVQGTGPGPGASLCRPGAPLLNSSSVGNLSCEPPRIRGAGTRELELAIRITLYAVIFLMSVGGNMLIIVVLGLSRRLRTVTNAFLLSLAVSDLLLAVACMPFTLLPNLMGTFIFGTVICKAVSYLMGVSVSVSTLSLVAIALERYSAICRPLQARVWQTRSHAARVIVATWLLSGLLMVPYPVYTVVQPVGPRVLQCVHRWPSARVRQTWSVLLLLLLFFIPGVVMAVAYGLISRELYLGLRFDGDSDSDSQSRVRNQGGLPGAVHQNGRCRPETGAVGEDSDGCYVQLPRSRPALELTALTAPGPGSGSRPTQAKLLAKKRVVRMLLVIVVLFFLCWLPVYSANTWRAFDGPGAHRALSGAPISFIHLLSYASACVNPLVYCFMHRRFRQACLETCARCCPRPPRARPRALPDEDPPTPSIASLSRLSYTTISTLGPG
Format: cell-based
Description: • To detect changes in intracellular calcium ion concentration after the compound acts on model cells containing CCK-B receptors (CHO-CCK).
• 1. The compound was formulated to a 10 mM mother liquor with DMSO, and then diluted into a series of 9 concentrations with a 3-fold gradient to form a 1000× stock solution.
2.1 Agonist • The compound stock solution was subjected to 200-fold dilution with HHBS buffer to form a 5× working solution.
• 1. Plate CHO-CCK cells in a 96-well plate with media containing 1% FBS, 30,000 cells/well/100 μL, and incubate overnight at 37° C. • 2. Prepare 1×Fluo-8 analysis buffer: mix 9 mL of HHBS, 1 mL of 10× Pluronic F127 Plus and 20 μL of Fluo-8 thoroughly for later use. • 3. Add Fluo-8 dye working solution to the cell plate, 100 μL/well. First incubate in a 37° C. incubator for 30 min, and then take it out and incubate at room temperature in the dark for 30 min. • 4. In the process of incubating cells, the compounds to be detected were prepared with HHBS. • 5.
The agonism/antagonism EC50 of the compound can be obtained by plotting the fitting curve with the agonism/antagonism percentage as Y-axis and the concentration of the compound as X-axis.

Molecule | EC50 [µM]
CCCC[C@H](NC(=O)[C@H](Cc1c[nH]c2ccccc12)N(C)C(=O)OCC1c2ccccc2-c2ccccc21)C(=O)N[C@@H](CC(=O)O)C(=O)N[C@@H](Cc1cccc(Br)c1)C(N)=O [HT-199, Fmoc-(N-Me-Trp)-Nle-Asp-Phe(3-Br)-NH2] (Fmoc-[NMeW][Nle]D[Phe(3-Br)]-NH2) | 0.00147
CC(C)C[C@H](NC(=O)[C@H](N)Cc1c[nH]c2ccccc12)C(=O)N[C@@H](CC(=O)O)C(=O)N[C@@H](Cc1cccc(Br)c1)C(=O)N[C@H](C)C(N)=O [HT-289, D-Trp-Val-Asp-Phe(3-Br)-D-Ala-NH2] | 3.19
CSCC[C@H](NC(=O)[C@H](N)Cc1c[nH]c2ccccc12)C(=O)N[C@@H](CC(=O)O)C(=O)N[C@@H](Cc1cccc(Br)c1)C(=O)N[C@H](C)C(N)=O [HT-290, D-Trp-Met-Asp-Phe(3-Br)-D-Ala-NH2] (H-[dW]MD[Phe(3-Br)][dA]-NH2) | 6.68

Same assay, conditions: CHO-CCK cells, Fluo-8 calcium flux; bound in μM

Molecule | EC50 [µM]
C[C@@H](NC(=O)[C@H](Cc1cccc(Br)c1)NC(=O)[C@H](CC(=O)O)NC(=O)[C@H](CCCCN)NC(=O)[C@H](N)Cc1c[nH]c2ccccc12)C(N)=O [HT-288, D-Trp-Lys-Asp-Phe(3-Br)-D-Ala-NH2] (H-[dW]KD[Phe(3-Br)][dA]-NH2) | > 10

Same assay, conditions: CHO-CCK cells, compound alone; 100% = 20 nM CCK8

Molecule | EC50 [µM]
C[S+]([O-])CC[C@H](NC(=O)[C@H](N)Cc1c[nH]c2ccccc12)C(=O)N[C@@H](CC(=O)O)C(=O)N[C@@H](Cc1cc(F)c(F)c(F)c1)C(N)=O (stereo partly drawn) [HT-57, D-Trp-Met(O)-Asp-Phe(3,4,5-TriF)-NH2] | 6.79

Same assay, conditions: CHO-CCK cells, compound alone; bound in μM

Molecule | EC50 [µM]
CSCC[C@H](NC(=O)[C@H](CC(=O)O)NC(=O)[C@H](Cc1ccccc1)NC(C)=O)C(=O)N[C@H](Cc1c[nH]c2ccccc12)C(N)=O [HT-6, Ac-Phe-Asp-Met-D-Trp-NH2] (Ac-FDM[dW]-NH2) | > 10
CSCC[C@@H](NC(=O)[C@H](CC(=O)O)NC(=O)[C@H](Cc1ccccc1)NC(C)=O)C(=O)N[C@@H](Cc1c[nH]c2ccccc12)C(=O)O [HT-5, Ac-Phe-Asp-D-Met-Trp-NH2] | > 10
CSCC[C@H](NC(=O)[C@H](CC(=O)O)NC(=O)[C@H](Cc1ccccc1)NC(C)=O)C(=O)N[C@@H](Cc1c[nH]c2ccccc12)C(=O)O [HT-3, Ac-Phe-Asp-Met-Trp-NH2] | > 10
CSCC[C@H](NC(=O)[C@H](CC(=O)O)NC(=O)[C@@H](N)Cc1ccccc1)C(=O)N[C@@H](Cc1c[nH]c2ccccc12)C(=O)O [HT-1, Phe-Asp-Met-Trp-COOH] (H-FDMW-OH) | > 10

Same assay, conditions: compound at 1 nM, CHO-CCK cells

Molecule | % Act-Ave @ 1 nM [%]
CCCC[C@H](NC(=O)[C@H](Cc1c[nH]c2ccccc12)N(C)C(C)=O)C(=O)N[C@@H](CC(=O)O)C(=O)N[C@@H](Cc1cccc(Br)c1)C(N)=O [HT-269, Ac-(N-Me-Trp)-Nle-Asp-Phe(3-Br)-NH2] (Ac-[NMeW][Nle]D[Phe(3-Br)]-NH2) | 0.05
HHHHHHSSGGDYMGWKDF-NH2 [HT-287] | 77.83
CCCC[C@H](NC(C)=O)C(=O)N[C@@H](CC(=O)O)C(=O)N[C@@H](Cc1cccc(Br)c1)C(N)=O [HT-283, Ac-Nle-Asp-Phe(3-Br)-NH2] (Ac-[Nle]-Asp-[Phe(3-Br)]-NH2) | −0.04
CCCCCC[C@H](NC(=O)[C@H](Cc1cn(C)c2ccccc12)NC(=O)OCc1ccccc1)C(=O)N[C@@H](CC(=O)O)C(=O)N[C@@H](Cc1cccc(Br)c1)C(N)=O [HT-279, Cbz-(1-Me-Trp)-Oa-Asp-Phe(3-Br)-NH2] (Cbz-[Trp(1-Me)][Aoc(2)]D[Phe(3-Br)]-NH2) | −0.19

Same assay, conditions: compound at 50 nM, CHO-CCK cells

Molecule | % Act-Ave @ 50 nM [%]
CCCC[C@H](NC(=O)[C@H](Cc1c[nH]c2ccccc12)N(C)C(C)=O)C(=O)N[C@@H](CC(=O)O)C(=O)N[C@@H](Cc1cccc(Br)c1)C(N)=O [HT-269, Ac-(N-Me-Trp)-Nle-Asp-Phe(3-Br)-NH2] (Ac-[NMeW][Nle]D[Phe(3-Br)]-NH2) | 33.52
HHHHHHSSGGDYMGWKDF-NH2 [HT-287] | 99.10
CCCC[C@H](NC(C)=O)C(=O)N[C@@H](CC(=O)O)C(=O)N[C@@H](Cc1cccc(Br)c1)C(N)=O [HT-283, Ac-Nle-Asp-Phe(3-Br)-NH2] (Ac-[Nle]-Asp-[Phe(3-Br)]-NH2) | −0.03
CCCCCC[C@H](NC(=O)[C@H](Cc1cn(C)c2ccccc12)NC(=O)OCc1ccccc1)C(=O)N[C@@H](CC(=O)O)C(=O)N[C@@H](Cc1cccc(Br)c1)C(N)=O [HT-279, Cbz-(1-Me-Trp)-Oa-Asp-Phe(3-Br)-NH2] (Cbz-[Trp(1-Me)][Aoc(2)]D[Phe(3-Br)]-NH2) | 90.99

Same assay, conditions: compound at 10 μM; percentage of signal of 20 nM CCK8 alone

Molecule | Agonistic Activity (%) at 10 μM [%]
COC(=O)C[C@H](NC(=O)[C@H](CC[S+](C)[O-])NC(=O)[C@H](N)Cc1c[nH]c2ccccc12)C(=O)N[C@@H](Cc1cccc(I)c1)C(N)=O (stereo partly drawn) [HT-113, D-Trp-Met(O)-Asp(Ome)-Phe(3-I)-NH2] | 6.21
COC(=O)C[C@H](NC(=O)[C@H](CC[S+](C)[O-])NC(=O)[C@H](N)Cc1c[nH]c2ccccc12)C(=O)N[C@@H](Cc1ccc(I)cc1)C(N)=O (stereo partly drawn) [HT-122, D-Trp-Met(O)-Asp(Ome)-Phe(4-I)-NH2] | 5.16
COC(=O)C[C@H](NC(=O)[C@H](CC[S+](C)[O-])NC(=O)[C@H](N)Cc1c[nH]c2ccccc12)C(=O)N[C@@H](Cc1ccccc1[N+](=O)[O-])C(N)=O (stereo partly drawn) [HT-109, D-Trp-Met(O)-Asp(Ome)-Phe(2-NO2)-NH2] | 3.33
C[S+]([O-])CC[C@H](NC(=O)[C@H](N)Cc1c[nH]c2ccccc12)C(=O)N[C@@H](CC(=O)O)C(=O)N[C@@H](Cc1ccc(N=[N+]=[N-])cc1)C(N)=O (stereo partly drawn) [HT-48, D-Trp-Met(O)-Asp-Phe(4-N3)-NH2] | 17.23
C[S+]([O-])CC[C@H](NC(=O)[C@H](N)Cc1c[nH]c2ccccc12)C(=O)N[C@@H](CC(=O)OCCNc1cccc2c(O)cccc12)C(=O)N[C@@H](Cc1ccc(F)cc1)C(N)=O (stereo partly drawn) [HT-155, D-Trp-Met(O)-Asp(EDANS)-Phe(4-F)-NH2] | 0.50
COC(=O)C[C@H](NC(=O)[C@H](CCS(C)(=O)=O)NC(=O)[C@H](N)Cc1c[nH]c2ccccc12)C(=O)N[C@@H](Cc1ccc([N+](=O)[O-])cc1)C(N)=O [HT-135, D-Trp-Met(O2)-Asp(Ome)-Phe(4-NO2)-NH2] | 11.52
C[S+]([O-])CC[C@H](NC(=O)[C@H](N)Cc1c[nH]c2ccccc12)C(=O)N[C@@H](CC(=O)O)C(=O)N[C@@H](Cc1cc(F)c(F)c(F)c1)C(N)=O (stereo partly drawn) [HT-57, D-Trp-Met(O)-Asp-Phe(3,4,5-TriF)-NH2] | 56.81
COC(=O)C[C@H](NC(=O)[C@H](CCSC)NC(=O)[C@H](N)Cc1c[nH]c2ccccc12)C(=O)N[C@@H](Cc1ccc(C#N)cc1)C(N)=O [HT-83, D-Trp-Met-Asp(Ome)-Phe(4-CN)-NH2] | 1.91
COC(=O)C[C@H](NC(=O)[C@H](CC[S+](C)[O-])NC(=O)[C@H](N)Cc1c[nH]c2ccccc12)C(=O)N[C@@H](Cc1cc(F)cc(F)c1)C(N)=O (stereo partly drawn) [HT-124, D-Trp-Met(O)t-Asp(Ome)-Phe(3,5-DiF)-NH2] | 0.71
COC(=O)C[C@H](NC(=O)[C@H](CCS(C)(=O)=O)NC(=O)[C@H](N)Cc1c[nH]c2ccccc12)C(=O)N[C@@H](Cc1ccccc1)C(N)=O [HT-22, D-Trp-Met(O2)-Asp(OMe)-Phe-NH2] | 0.98
CS(=O)(=O)CC[C@H](NC(=O)[C@H](N)Cc1c[nH]c2ccccc12)C(=O)N[C@@H](CC(=O)O)C(=O)N[C@@H](Cc1ccc(I)cc1)C(N)=O [HT-71, D-Trp-Met(O2)-Asp-Phe(4-I)-NH2] | 13.13
COC(=O)C[C@H](NC(=O)[C@H](CCSC)NC(=O)[C@H](N)Cc1c[nH]c2ccccc12)C(=O)N[C@@H](Cc1cccc(Cl)c1)C(N)=O [HT-77, D-Trp-Met-Asp(Ome)-Phe(3-Cl)-NH2] | 1.83
COC(=O)C[C@H](NC(=O)[C@H](CC[S+](C)[O-])NC(=O)[C@H](N)Cc1c[nH]c2ccccc12)C(=O)N[C@@H](Cc1cccc(Br)c1)C(N)=O (stereo partly drawn) [HT-114, D-Trp-Met(O)-Asp(Ome)-Phe(3-Br)-NH2] | −8.48
C[S+]([O-])CC[C@H](NC(=O)[C@H](N)Cc1c[nH]c2ccccc12)C(=O)N[C@@H](CC(=O)O)C(=O)N[C@@H](Cc1ccc(I)cc1)C(N)=O (stereo partly drawn) [HT-54, D-Trp-Met(O)-Asp-Phe(4-I)-NH2] | 3.14
COC(=O)C[C@H](NC(=O)[C@H](CCS(C)(=O)=O)NC(=O)[C@H](N)Cc1c[nH]c2ccccc12)C(=O)N[C@@H](Cc1cc(F)c(F)c(F)c1)C(N)=O [HT-142, D-Trp-Met(O2)-Asp(Ome)-Phe(3,4,5-TriF)-NH2] | 0.79
COC(=O)C[C@H](NC(=O)[C@H](CCS(C)(=O)=O)NC(=O)[C@H](N)Cc1c[nH]c2ccccc12)C(=O)N[C@@H](Cc1cc(Cl)cc(Cl)c1)C(N)=O [HT-140, D-Trp-Met(O2)-Asp(Ome)-Phe(3,5-DiCl)-NH2] | 10.66
C[S+]([O-])CC[C@H](NC(=O)[C@H](N)Cc1c[nH]c2ccccc12)C(=O)N[C@@H](CC(=O)OCCNc1cccc2c(O)cccc12)C(=O)N[C@@H](Cc1cc(F)c(F)c(F)c1)C(N)=O (stereo partly drawn) [HT-159, D-Trp-Met(O)-Asp(EDANS)-Phe(3,4,5-TriF)-NH2] | 4.93
C[S+]([O-])CC[C@H](NC(=O)[C@H](N)Cc1c[nH]c2ccccc12)C(=O)N[C@@H](CC(=O)O)C(=O)N[C@@H](Cc1cc(F)cc(F)c1)C(N)=O (stereo partly drawn) [HT-56, D-Trp-Met(O)-Asp-Phe(3,5-DiF)-NH2] | 43.98
COC(=O)C[C@H](NC(=O)[C@H](CCSC)NC(=O)[C@H](N)Cc1c[nH]c2ccccc12)C(=O)N[C@@H](Cc1ccc(Br)cc1)C(N)=O [HT-85, D-Trp-Met-Asp(Ome)-Phe(4-Br)-NH2] | 7.32

— patent publication US20240415918A1, “Polypeptide and its use as a CCK receptor agonist/antagonist” (Centre for Regenerative Medicine & Health, Hong Kong …, priority 2021, published 2024)
